For orientation: inhibition means the relative decrease from the control value, in per cent.

The results in this text go back to ChEMBL document CHEMBL3779829, “Tandem virtual screening targeting the SRA domain of UHRF1 identifies a novel chemical tool modulating DNA methylation” (Eur J Med Chem, 2016).

Common to all, as to format: cell-based
Test [1] deals with T1, E3 ubiquitin-protein ligase UHRF1 (Homo sapiens) (UniProt Q96T88).
T1 sequence (whole entry): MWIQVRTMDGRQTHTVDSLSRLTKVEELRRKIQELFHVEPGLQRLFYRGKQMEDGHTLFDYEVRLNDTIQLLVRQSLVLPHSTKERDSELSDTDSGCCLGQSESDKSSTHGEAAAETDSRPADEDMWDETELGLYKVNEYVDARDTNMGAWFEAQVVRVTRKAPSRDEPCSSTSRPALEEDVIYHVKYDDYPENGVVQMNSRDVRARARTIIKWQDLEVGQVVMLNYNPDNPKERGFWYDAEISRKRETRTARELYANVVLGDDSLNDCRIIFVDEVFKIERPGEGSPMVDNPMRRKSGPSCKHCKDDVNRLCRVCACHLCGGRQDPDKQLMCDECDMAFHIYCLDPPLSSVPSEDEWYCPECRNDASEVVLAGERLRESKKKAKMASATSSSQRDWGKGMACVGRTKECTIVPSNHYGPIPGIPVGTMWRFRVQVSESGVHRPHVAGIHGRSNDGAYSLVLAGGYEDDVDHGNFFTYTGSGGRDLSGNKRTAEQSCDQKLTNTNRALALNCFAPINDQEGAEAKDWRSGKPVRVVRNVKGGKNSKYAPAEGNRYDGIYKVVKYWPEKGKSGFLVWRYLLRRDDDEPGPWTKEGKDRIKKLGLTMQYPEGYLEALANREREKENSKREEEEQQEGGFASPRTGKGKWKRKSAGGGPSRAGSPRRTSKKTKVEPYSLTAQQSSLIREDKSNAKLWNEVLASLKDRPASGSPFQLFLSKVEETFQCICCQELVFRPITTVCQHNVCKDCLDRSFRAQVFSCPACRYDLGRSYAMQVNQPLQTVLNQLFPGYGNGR
Put plainly: Inhibition of UHRF1 in human MCF7 cells assessed as DNA global demethylation by measuring 5-methylcytosine level at 15 uM after 72 hrs by HPLC-MS/MS analysis (reference value: 1.7 +/- 0.36%). Details: scale not given: the % may be the effect or the level left.

Test [2] addresses T1, E3 ubiquitin-protein ligase UHRF1 (Homo sapiens). Put plainly: Inhibition of UHRF1 in human MCF7 cells assessed as reduction in global 5-methylcytosine level at 15 uM after 72 hrs by HPLC-MS/MS analysis relative to control.
The target is the same in test [3]. The experiment in a line: Inhibition of UHRF1 in human MCF7 cells assessed as decrease in methylation at RAR beta exon at 15 uM after 72 hrs by methylation specific-PCR method.
Test [4] has the same target. Put plainly: Inhibition of UHRF1/DNMT1 protein interaction in human U251 cells assessed as reduction in 5-methylcytosine level at 15 uM after 72 hrs by ELISA relative to control. The conditions noted are these: U-251. Background: In an ELISA, binding on a coated surface is turned into a signal by an enzyme label.
For test [5] the target is unchanged. Put plainly: Inhibition of UHRF1/DNMT1 protein interaction in human U251 cells at 15 uM after 4 hrs by DAPI staining based P-LISA. The following applies: U-251.

Activity calls are given as the source filed them. No cut-off for these calls is given here.

Regarding `CC(=O)c1c[nH]c(=O)[nH]c1=O`, the Activity in test [1] came out at 0.74%. Further, the inhibition in test [2] was determined as 56%. The “RAR beta exon methylation decrease (activity call)” value (“RAR beta exon methylation decrease” below) in test [3] is “Active”.

`Nc1ncn([C@@H]2O[C@H](CO)[C@@H](O)[C@H]2O)c(=O)n1`: the Activity in test [1] came out at 0.88%. Besides, the inhibition in test [2] came out at 48%. Also, the “RAR beta exon methylation decrease” value in test [3] is “Active”.

For the compound `c1ccc2c(C3CCN(CCN4CCOCC4)C3)c[nH]c2c1` (stereo unspecified), the Activity in test [1] is 0.99%. The “RAR beta exon methylation decrease” value in test [3] was “Active”.

`O=C1NC(=O)C2(CC2)C(=O)N1`: the Activity in test [1] was found to be 0.82%. The inhibition result in test [3] was “Active”.

As to `CN(C)c1c[nH]c(=O)[nH]c1=O`, the Activity in test [1] came out at 0.86%. The “RAR beta exon methylation decrease” value in test [3] is “Active”.

With `C/C(NO)=C1\C=NC(=O)NC1=O`, the inhibition in test [4] and in test [5] was 50% in each case.

Turning to `CCOC(=O)c1cnc(=O)[nH]c1N`, the Activity in test [1] is 0.87%. Besides, the “RAR beta exon methylation decrease” value in test [3] is “Active”.
